Source: patent publication US11007232B2, “Use of neural cells derived from human pluripotent stem cells for the treatment of neurodegenerative diseases” (priority 2013, dated 2021)

Test system: DA neuron precursor cells
Assay: Differentiation of DA neuron precursor cells into DA neurons with guggulsterone, FACS for TH
Assay type: cell-based, human
Conditions: guggulsterone 2.5 μM for two weeks; after 30 days of differentiation
Protocol: The DA neuron precursor cells were plated at 2000 cells/well of a 96-well plate and treated with guggulsterone (GS) at 2.5 μM for two weeks. After 30 days of differentiation, GS-treated neurons appeared mature with elaborate neurite extensions. At this stage, the derived cells expressed not only the major neuronal marker β-III-tubulin (TUJ1), but also the important DA neuron markers tyrosine hydroxylase (TH), the dopamine transporter (Dat), Foxa2, Nurr-1, and Girk2. […] The method specifically involved treating both hESC-H9-NSCs (Invitrogen) and hPSC-NSCs with Purmorphamine (2 μM) and FGF8 (100 ng/mL) in NB medium [NeuroBasal medium, 1× GlutaMAX, 1× N2/B27 Supplement (Invitrogen)] for 7 days. […] Two weeks after treatment with small molecules, all wells were visually observed and scored based on neurite density and dopamine release. For measuring neurite density, cells were fixed with 4% paraformaldehyde and phase contrast images were acquired using Cellavista Cell Imaging System (Roche Applied Science) from randomly selected fields. Neurite density was measured using the Cellavista density software image processing program. Each experimental condition was done in duplicate wells, and at least three independent experiments were conducted to acquire the final results.

C/C=C1\C(=O)C[C@H]2[C@@H]3CCC4=CC(=O)CC[C@]4(C)[C@H]3CC[C@]12C [guggulsterone]
cells gated TH positive (FACS analysis): more than 97%
